{"source": "patent US20060135494A1", "about": "“Methods of treating injuries of the nervous system associated with hemorrhage” (priority 2002, published 2006)", "type_in_all_cases": "in vivo", "key": {"[1]": {"system": "collagenase-induced intrastriatal hemorrhage (ICH)", "assay": "Hematoma (hemorrhagic lesion) volume in collagenase-induced ICH rat model", "settings": "for Protection (%) ICH core / Protection (%) Peri-ICH: mean ± SEM", "text": "All animals received humane care in compliance with the institute's guidelines as outlined in “Guide for the Care and Use of Laboratory Animals” prepared by the National Academy of Sciences and published by the National Institutes of Health (NIH publication no. 86-23, revised 1985). Female Sprague-Dawley rats (250-300 grams (g); Harlan Sprague-Dawley, Inc., Indianapolis, Ind.) were anesthesized with an intramuscular injection of a mixture of ketamine and xylazine and set in supine in a Kopf headholder. The right carotid artery, external and internal branches, was exposed and the distal end of the external carotid freed and retracted to line with the internal carotid. A PE-10 polyethylene tube (Becton-Dickinson, Sparks, Md.) was then introduced from the external into the internal carotid artery, and the former was ligated to hold the tube. TUDCA (Calbiochem-Novabiochem Corp., San Diego, Calif.) was dissolved in phosphate buffer, pH 7.4 at […] milligrams per milliliter (mg/ml). Saline or TUDCA solution (1 milliliter per kilogram body weight (ml/kg bw)) were injected directly into the internal carotid artery, within 5 minutes. Different concentrations of TUDCA (10, 50, 100, and 200 mg/kg bw) were administered 1 hour prior to, or 1, 3, and 6 hours after collagenase injection. The polyethylene tube was finally removed, the end of the external carotid artery cauterized, and the wound closed. To induce stroke injury, the animals were placed in a stereotaxic apparatus and ICH induced by collagenase infusion (Rosenberg et al., Stroke 1990;21:801-807 and Chesney et al., Stroke 1995;26:312-316). In brief, a midline incision was made through the scalp to expose the skull. […] (0.5 microliters per minute (μL/min)) of saline containing 0.5 unit (U) bacterial collagenase (type VII; Sigma Chemical Co., St. Louis, Mo.) was made stereotaxically into the striatum with a 10-μl Hamilton syringe at the following coordinates: 0.4 millimeter (mm) anterior and 3.0 mm lateral to bregma and 5.0 mm ventral to the cortical surface. Once the infusion was complete, the Hamilton syringe was left in place for 3 minutes. Body temperature was maintained at 37° C. with a CMA/150 temperature controller throughout the surgery. The rats recovered from surgery in a cage containing food and heated by an incandescent light bulb. Neurological testing was performed at 2 days after induction of ICH. The animals were then sacrificed, and the brains removed and frozen at −70° C. for either serial cryostat sectioning, or RNA and protein extraction. In a subset of animals, serum and brain samples were collected for bile acid analysis.\nAfter behavioral testing, rats were sacrificed and the brains removed for serial cryostat sectioning. Volumes of hemorrhagic lesion, including core and peri-ICH regions, were quantitated using unbiased stereologic volumetric analysis of 20-μm cryostat sections after staining according to the Nissl protocol. Volumetric analysis was performed according to Cavalieri's method (Howard et al, Unbiased stereology: three-dimensional measurement in microscopy. New York: BIOS Scientific Publishers Ltd 1998). The areas of lesion were determined in 11 Nissl-stained sections 20 μm in thickness, 900 μm apart, from each animal. Volumes (mm^3) were calculated according to the formula V=T×a/p×ΣPi, where V=volume of interest, T=distance between sections (mm), a/p=area associated with each point (mm^2), and Pi=points hitting object in each section."}, "caspase-3-like proteases": {"system": "caspase-3-like proteases", "assay": "DEVD-specific caspase activity in ICH rat brain tissue", "text": "All animals received humane care in compliance with the institute's guidelines as outlined in “Guide for the Care and Use of Laboratory Animals” prepared by the National Academy of Sciences and published by the National Institutes of Health (NIH publication no. 86-23, revised 1985). Female Sprague-Dawley rats (250-300 grams (g); Harlan Sprague-Dawley, Inc., Indianapolis, Ind.) were anesthesized with an intramuscular injection of a mixture of ketamine and xylazine and set in supine in a Kopf headholder. The right carotid artery, external and internal branches, was exposed and the distal end of the external carotid freed and retracted to line with the internal carotid. […]\nCaspase activation was determined in dissected brain tissue from the ispilateral and corresponding contralateral areas. […] General caspase activity was evaluated by enzymatic cleavage of chromophore p-nitroanilide (pNA) from the substrate N-acetyl-Asp-Glu-Val-Asp-pNA (DEVD-pNA; Sigma Chemical Co.). […] The reaction mixtures were incubated at 37° C. for 1 hour, and the formation of pNA was measured at 405 nm using a 96-well plate reader. Protein concentrations were determined using the Bio-Rad protein assay kit (Bio-Rad Laboratories, Hercules, Calif.) according to the manufacturer's specifications."}, "[2]": {"system": "NF-κB/IκBα protein complex", "assay": "Immunoblotting and immunohistochemistry of NF-κB/IκBα in ICH rat brain", "text": "All animals received humane care in compliance with the institute's guidelines as outlined in “Guide for the Care and Use of Laboratory Animals” prepared by the National Academy of Sciences and published by the National Institutes of Health (NIH publication no. 86-23, revised 1985). Female Sprague-Dawley rats (250-300 grams (g); Harlan Sprague-Dawley, Inc., Indianapolis, Ind.) were anesthesized with an intramuscular injection of a mixture of ketamine and xylazine and set in supine in a Kopf headholder. The right carotid artery, external and internal branches, was exposed and the distal end of the external carotid freed and retracted to line with the internal carotid. A PE-10 polyethylene tube (Becton-Dickinson, Sparks, Md.) was then introduced from the external into the internal carotid artery, and the former was ligated to hold the tube. TUDCA (Calbiochem-Novabiochem Corp., San Diego, Calif.) was dissolved in phosphate buffer, pH 7.4 at 400 milligrams per milliliter (mg/ml). Saline or TUDCA solution (1 milliliter per kilogram body weight (ml/kg bw)) were injected directly into the internal carotid artery, within 5 minutes. […]\nBcl-2 family, NF-κB, IκB, p-Akt, and p-Bad protein levels were determined from total protein homogenates separated by 12% sodium dodecyl sulfate polyacrylamide gel electrophoresis (SDS-PAGE). […]"}, "[3]": {"settings": "100 mg/kg bw TUDCA administered at 1 h"}, "[4]": {"settings": "100 mg/kg bw TUDCA administered at 3 h"}, "[5]": {"settings": "100 mg/kg bw TUDCA administered at 6 h"}}}
{"smiles": "C[C@H](CCC(=O)NCCS(=O)(=O)O)[C@H]1CC[C@H]2[C@@H]3[C@@H](O)C[C@@H]4C[C@H](O)CC[C@]4(C)[C@H]3CC[C@]12C", "note": "[TUDCA, tauroursodeoxycholic acid]", "values": [{"measurement": "hemorrhagic lesions larger in vehicle-injected group compared with TUDCA-treated rats", "setting": "[1]; 100 mg/kg bw TUDCA 1 hour before collagenase, 2 days", "value": "approximately 50%"}, {"measurement": "protective effect on volume of brain lesioned", "setting": "[1]; 100 mg/kg bw TUDCA 1 hour before or up to 3 hours after hemorrhage, 2 days", "value": "40-50%"}, {"measurement": "protective effect on volume of brain lesioned", "setting": "[1]; 100 mg/kg bw TUDCA 6 hours after collagenase infusion", "value": "partially lost but still evident"}, {"measurement": "Protection (%) ICH core", "setting": "[1]; [3]", "value": "47.7 ± 3.2", "unit": "%"}, {"measurement": "Protection (%) Peri-ICH", "setting": "[1]; [3]", "value": "48.6 ± 3.5", "unit": "%"}, {"measurement": "Protection (%) ICH core", "setting": "[1]; [4]", "value": "30.0 ± 18.9", "unit": "%"}, {"measurement": "Protection (%) Peri-ICH", "setting": "[1]; [4]", "value": "42.8 ± 14.9", "unit": "%"}, {"measurement": "Protection (%) ICH core", "setting": "[1]; [5]", "value": "20.9 ± 12.9", "unit": "%"}, {"measurement": "Protection (%) Peri-ICH", "setting": "[1]; [5]", "value": "38.7 ± 12.9", "unit": "%"}, {"measurement": "hemorrhagic lesion volume", "setting": "[1]; 100 mg/kg bw TUDCA into internal carotid artery 1 hour before collagenase, 2 days after infusion, mean±SEM", "value": "143.9±46.5", "unit": "mm^3"}, {"measurement": "reduction in lesion volume", "setting": "[1]; 200 mg/kg bw TUDCA 1 hour before collagenase, 2 days", "value": "~60", "unit": "%"}, {"measurement": "protection of lesion volume", "setting": "[1]; 10 and 50 mg/kg bw dose regimens, 1 hour before collagenase", "value": "significantly less protective"}, {"measurement": "caspase activity versus vehicle-injected animals", "setting": "caspase-3-like proteases; 100 mg/kg bw TUDCA, time-course 1 hour before to 6 hours after collagenase", "value": "remained markedly lower"}, {"measurement": "reduction of caspase activation in the lesioned hemisphere", "setting": "caspase-3-like proteases; 100 and 200 mg/kg bw TUDCA 1 hour before collagenase", "value": "45-60%"}, {"measurement": "NF-κB activation in the peri-ICH region (immunohistochemistry, words)", "setting": "[2]; 100 mg/kg bw TUDCA, 2 days after ICH", "value": "markedly decreased"}, {"measurement": "IκBα protein level (Western blot, words)", "setting": "[2]; increasing doses of TUDCA (10-200 mg/kg bw) 1 hour before collagenase, ipsilateral hemisphere", "value": "largely restored"}]}
